Laboratory results reported in US7960387B2, “2-(3-phenyl-2-piperazinyl-3,4-dihydroquinazolin-4-yl)acetic acids as antiviral agents, especially against cytomegaloviruses” (Bayer Schering Pharma Aktiengesellschaft, priority 2003, dated 2011).
Counter-ions that a name gives are not always drawn. Like-named read-outs stand apart in the source and are kept apart here.

Tests used:
HCMV = assay: Anti-HCMV cytopathogenicity test; type: cell-based, human cytomegalovirus; details: read-out: HCMV EC50
Protocol: (§1) Anti-HCMV (Anti-Human Cytomegalovirus) Cytopathogenicity Tests The test compounds are employed as 50 millimolar (mM) solutions in dimethyl sulphoxide (DMSO). Ganciclovir®, Foscarnet® and Cidofovir® are used as reference compounds. After addition of in each case 2 μl of the 50, 5, 0.5 and 0.05 mM DMSO stock solutions to 98 μl portions of cell culture medium in row […] for duplicate determinations, 1:2 dilutions are carried out with 50 μl portions of medium up to row 11 of the 96-well plate. The wells in rows 1 and 12 each contain 50 μl of medium. In 150 μl of a suspension of 1×10^4 cells (human prepuce fibroblasts [NHDF]) are pipetted into each of the wells (row 1=cell control) and, in rows 2-12, a mixture of HCMV-infected and uninfected NHDF cells (M.O.I.=0.001-0.002), i.e. 1-2 infected cells per 1000 uninfected cells. Row 12 (without substance) serves as virus control. The final test concentrations are 250-0.0005 μM. The plates are incubated at 37° C./5% CO2 for 6 days, i.e. until all the cells are infected in the virus controls (100% cytopathogenic effect [CPE]). The wells are then fixed and stained by adding a mixture of formalin and Giemsa's dye (30 minutes), washed with double-distilled water and dried in a drying oven at 50° C. The plates are then assessed visually using an overhead microscope (Plaque Multiplier from Technomara). The following data can be acquired from the test plates: • CC50 (NHDF)=substance concentration in μM at which no visible cytostatic effects on the cells are evident by comparison with the untreated cell control; • EC50 (HCMV)=substance concentration in μM which inhibits the CPE (cytopathic effect) by 50% compared with the untreated virus control; • SI (selectivity index)=CC50 (NHDF)/EC50 (HCMV).

[1] = Anti-HCMV cytopathogenicity test: cytostatic effects on NHDF cells; type: cell-based; details: NHDF cells (human prepuce fibroblasts), 6 days incubation, visual assessment, concentration at which no visible cytostatic effects are evident vs untreated cell control
Protocol: as §1

[2] = Human betaherpesvirus 5, 144 h, HCMV-infected NHDF cells, M.O.I. 0.001-0.002, 6 days, 50% inhibition of CPE vs untreated virus control

| EC50 (HCMV; [2]) [µM] | Structure (SMILES) | CC50 at 6 days [1] [µM] | EC50 (HCMV; Human betaherpesvirus 5, NHDF, 144 h) [µM] |
| --- | --- | --- | --- |
| 0.4 | O=C(O)CC1c2ccccc2N=C(N2CCN(c3cccc(Cl)c3)CC2)N1c1ccc(F)c(Cl)c1 (stereo not shown) [Example 19] | 24 | – |
| 0.027 | Cc1cc(N2CCN(C3=Nc4ccccc4C(CC(=O)O)N3c3cccc(C(F)(F)F)c3)CC2)ccc1F (stereo not shown) [Example 1, {2-[4-(4-Fluoro-3-methylphenyl)-1-piperazinyl]-3-[3-(trifluoromethyl)phenyl]-3,4-dihydro-4-quinazolinyl}acetic acid] | 17 | – |
| 0.07 | COc1ccc(Cl)cc1N1C(N2CCN(c3ccc(F)cc3)CC2)=Nc2ccccc2C1CC(=O)O (stereo not shown) [Example 29, {2-[4-(4-Fluorophenyl)-1-piperazinyl]-3-[2-methoxy-5-chlorophenyl]-3,4-dihydro-4-quinazolinyl}acetic acid] | 125 | – |
| 0.025 | COc1cccc(N2CCN(C3=Nc4ccccc4C(CC(=O)O)N3c3cc(Cl)ccc3OC)CC2)c1 (stereo not shown) [Example 28, {2-[4-(3-Methoxyphenyl)-1-piperazinyl]-3-[2-methoxy-5-chlorophenyl]-3,4-dihydro-4-quinazolinyl]acetic acid] | 63 | – |
| 0.76 | COc1cccc(N2CCN(C3=Nc4ccccc4C(CC(=O)O)N3c3cccc(C#N)c3)CC2)c1 (stereo not shown) [Example 23] | 188 | – |
| 0.14 | COc1ccc(C)cc1N1C(N2CCN(c3cccc(Cl)c3)CC2)=Nc2ccccc2C1CC(=O)O (stereo not shown) [Example 31, {2-[4-(3-Chlorophenyl)-1-piperazinyl]-3-[2-methoxy-5-methylphenyl]-3,4-dihydro-4-quinazolinyl}acetic acid] | 63 | – |
| 0.4 | Cc1cc(Cl)ccc1N1C(N2CCN(c3cccc(Cl)c3)CC2)=Nc2ccccc2C1CC(=O)O (stereo not shown) [Example 6, {2-[4-(3-Chlorophenyl)-1-piperazinyl]-3-[4-chloro-2-methylphenyl]-3,4-dihydro-4-quinazolinyl}acetic acid] | 22 | – |
| 0.019 | COc1ccc(C(F)(F)F)cc1N1C(N2CCN(c3cccc(Cl)c3)CC2)=Nc2ccccc2C1CC(=O)O (stereo not shown) [Example 26, {2-[4-(3-Chlorophenyl)-1-piperazinyl]-3-[2-methoxy-5-(trifluoromethyl)phenyl]-3,4-dihydro-4-quinazolinyl)acetic acid] | 31 | – |
| 0.25 | COc1ccc(C)cc1N1C(N2CCN(c3cccc(C)c3)CC2)=Nc2ccccc2C1CC(=O)O (stereo not shown) [Example 30, {2-[4-(3-Methylpheny)-1-piperazinyl]-3-[2-methoxy-5-methylphenyl]-3,4-dihydro-4-quinazolinyl}acetic acid] | 250 | – |
| 0.13 | COc1ccc(C(F)(F)F)cc1N1C(N2CCN(c3cccc(C)c3)CC2)=Nc2ccccc2C1CC(=O)O (stereo not shown) [Example 27, {2-[4-(3-Methylphenyl)-1-piperazinyl]-3-[2-methoxy-5-(trifluoromethyl)phenyl]-3,4-dihydro-4-quinazolinyl}acetic acid] | 188 | – |
| – | O=C(O)CC1c2ccccc2N=C(N2CCN(c3ccc(F)cc3)CC2)N1c1cc(C(F)(F)F)ccc1F (stereo not shown) [Example 2, {2-[4-(4-Fluorophenyl)-1-piperazinyl]-3-[2-fluoro-5-(trifluoromethyl)phenyl]-3,4-dihydro-4-quinazolinyl}acetic acid hydrochloride] | 39 | 0.06 |
